One may read the EC50 as the concentration giving half of the maximal effect.

In one test the target is T1, GLP-1R (Homo sapiens, UniProt P43220).
T1 construct: expressed in transfected cells; host or cells: CHO-K1
In words: GLP-1 activity test (cAMP, chemiluminescence, CHO-K1 cell line stably expressing GLP-1R). Particulars: relative luminescence units, read-out: GLP-1 activity [EC50(pmol)]. The class given is cell-based. How it is done:
(§1) Upon stimulation by a specific agonist, GLP-1R activates the intracellular adenylate cyclase signaling pathway, resulting in an increase in cAMP levels and ultimately leading to insulin production and secretion. A cell line stably transfected with GLP-1R was stimulated with test compounds, thereby rapidly increasing intracellular cAMP levels. The relative luminescence units (RLU) of cells stimulated at various concentrations were measured by a chemiluminescence method, and the EC50 value of the agonist was calculated accordingly. This activity test method is currently a commonly used method for evaluating GLP-1 receptor agonist activity both domestically and internationally.
A CHO-K1 cell line stably expressing GLP-1R was used. The stable cells were stimulated with agonists at different concentrations, and the relative luminescence units after stimulation at each concentration were measured to calculate the EC50 value of the agonist.

The target of the next test is T2, GCG-R (Homo sapiens, UniProt P47871).
T2 construct: expressed in transfected cells; host or cells: CHO-K1
T2 sequence (P47871 26-477, species assumed): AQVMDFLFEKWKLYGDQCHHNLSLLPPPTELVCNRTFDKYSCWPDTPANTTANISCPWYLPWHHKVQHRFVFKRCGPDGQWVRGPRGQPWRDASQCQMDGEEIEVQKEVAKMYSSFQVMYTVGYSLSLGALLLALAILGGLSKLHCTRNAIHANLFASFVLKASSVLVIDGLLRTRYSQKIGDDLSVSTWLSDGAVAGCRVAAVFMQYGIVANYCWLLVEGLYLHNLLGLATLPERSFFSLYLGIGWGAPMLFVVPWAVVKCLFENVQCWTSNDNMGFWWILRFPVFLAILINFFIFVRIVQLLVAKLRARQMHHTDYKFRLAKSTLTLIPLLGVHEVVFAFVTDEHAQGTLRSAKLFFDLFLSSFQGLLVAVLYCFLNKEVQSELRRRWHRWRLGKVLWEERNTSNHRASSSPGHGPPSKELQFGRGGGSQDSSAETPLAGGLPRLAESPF
In words: GCG activity test (cAMP, chemiluminescence, CHO-K1 cell line stably expressing GCG-R). The test is classed as cell-based. Particulars: relative luminescence units, read-out: GCG activity [EC50(nmol)]. How it is done:
as §1, with “agonist, GCG-R” for “agonist, GLP-1R”, “with GCG-R” for “with GLP-1R”, “activity assay” for “activity test”, “evaluating GCG” for “evaluating GLP-1”
A CHO-K1 cell line stably expressing GCG-R was used. The stable cells were stimulated with agonists at different concentrations, and the relative luminescence units after stimulation at each concentration were measured to calculate the EC50 value of the agonist.

T1 sequence (P43220 24-463, species assumed): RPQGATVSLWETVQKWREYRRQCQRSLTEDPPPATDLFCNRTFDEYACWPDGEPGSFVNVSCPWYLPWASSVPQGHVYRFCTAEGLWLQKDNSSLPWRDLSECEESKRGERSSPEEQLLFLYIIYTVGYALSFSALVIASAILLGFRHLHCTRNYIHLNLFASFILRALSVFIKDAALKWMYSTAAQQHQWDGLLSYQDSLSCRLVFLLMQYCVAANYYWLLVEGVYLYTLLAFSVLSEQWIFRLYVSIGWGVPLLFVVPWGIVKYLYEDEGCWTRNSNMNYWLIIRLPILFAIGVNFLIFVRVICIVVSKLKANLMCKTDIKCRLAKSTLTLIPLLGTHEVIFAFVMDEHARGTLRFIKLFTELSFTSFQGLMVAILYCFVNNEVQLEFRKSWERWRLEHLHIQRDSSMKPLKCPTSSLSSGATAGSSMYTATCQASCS

Take `CC(C)C[C@H](NC(=O)[C@H](CC(C)C)NC(=O)[C@H](Cc1c[nH]c2ccccc12)NC(=O)[C@H](CCC(=O)O)NC(=O)[C@@H](NC(=O)[C@H](Cc1ccccc1)NC(=O)[C@H](CCC(=O)O)NC(=O)[C@H](CCCCNC(=O)COCCOCCNC(=O)COCCOCCNC(=O)CC[C@H](NC(=O)CCCCCCCCCCCCCCCCCCC(=O)O)C(=O)O)NC(=O)[C@H](C)NC(=O)[C@H](CCCCN)NC(=O)[C@H](CCCCN)NC(=O)[C@H](CCC(=O)O)NC(=O)[C@H](CC(=O)O)NC(=O)[C@H](CC(C)C)NC(=O)[C@H](Cc1ccc(O)cc1)NC(=O)[C@H](CCCCN)NC(=O)[C@H](CO)NC(=O)[C@H](Cc1ccc(O)cc1)NC(=O)[C@H](CC(=O)O)NC(=O)[C@H](CO)NC(=O)[C@@H](NC(=O)C(C)(Cc1ccccc1)NC(=O)[C@@H](NC(=O)CNC(=O)[C@H](CCC(N)=O)NC(=O)C(C)(C)NC(=O)[C@@H](N)Cc1c[nH]cn1)[C@@H](C)O)[C@@H](C)O)C(C)C)C(=O)N[C@@H](CCC(=O)O)C(=O)NCCCCC(=O)N1CCC[C@H]1C(=O)N[C@@H](CO)C(=O)N[C@@H](CO)C(=O)NCC(=O)N[C@@H](C)C(=O)N1CCC[C@H]1C(=O)N1CCC[C@H]1C(=O)N1CCC[C@H]1C(=O)N[C@@H](CO)C(N)=O` (stereo partly drawn) [Compound 14]: the values for the EC50 on GLP-1R and at GCG-R were 0.088 nM and 2.5 nM, respectively.

For the compound `CC(C)C[C@H](NC(=O)[C@H](CC(C)C)NC(=O)[C@H](Cc1c[nH]c2ccccc12)NC(=O)[C@H](CCC(=O)O)NC(=O)[C@@H](NC(=O)[C@H](Cc1ccccc1)NC(=O)[C@H](CCC(=O)O)NC(=O)[C@H](CCCCNC(=O)COCCOCCOCCOCCOCCNC(=O)CCCCC[C@H](NC(=O)CCCCCCCCCCCCCCCCCCC(=O)O)C(=O)O)NC(=O)[C@H](C)NC(=O)[C@H](CCCCN)NC(=O)[C@H](CCCCN)NC(=O)[C@H](CCC(=O)O)NC(=O)[C@H](CC(=O)O)NC(=O)[C@H](CC(C)C)NC(=O)[C@H](Cc1ccc(O)cc1)NC(=O)[C@H](CCCCN)NC(=O)[C@H](CO)NC(=O)[C@H](Cc1ccc(O)cc1)NC(=O)[C@H](CC(=O)O)NC(=O)[C@H](CO)NC(=O)[C@@H](NC(=O)C(C)(Cc1ccccc1)NC(=O)[C@@H](NC(=O)CNC(=O)[C@H](CCC(N)=O)NC(=O)C(C)(C)NC(=O)[C@@H](N)Cc1c[nH]cn1)[C@@H](C)O)[C@@H](C)O)C(C)C)C(=O)N[C@@H](CCC(=O)O)C(=O)NCCCCC(=O)N1CCC[C@H]1C(=O)N[C@@H](CO)C(=O)N[C@@H](CO)C(=O)NCC(=O)N[C@@H](C)C(=O)N1CCC[C@H]1C(=O)N1CCC[C@H]1C(=O)N1CCC[C@H]1C(=O)N[C@@H](CO)C(N)=O` (stereo partly drawn) [Compound 8], the EC50 on GLP-1R worked out at 0.105 nM; on GCG-R it was 2.6 nM.

For the compound `CC(C)C[C@H](NC(=O)[C@H](CC(C)C)NC(=O)[C@H](Cc1c[nH]c2ccccc12)NC(=O)[C@H](CCC(=O)O)NC(=O)[C@@H](NC(=O)[C@H](Cc1ccccc1)NC(=O)[C@H](CCC(=O)O)NC(=O)[C@H](CCCCNC(=O)COCCOCCOCCOCCOCCNC(=O)CCCC[C@H](NC(=O)CCCCCCCCCCCCCCCCCCC(=O)O)C(=O)O)NC(=O)[C@H](C)NC(=O)[C@H](CCCCN)NC(=O)[C@H](CCCCN)NC(=O)[C@H](CCC(=O)O)NC(=O)[C@H](CC(=O)O)NC(=O)[C@H](CC(C)C)NC(=O)[C@H](Cc1ccc(O)cc1)NC(=O)[C@H](CCCCN)NC(=O)[C@H](CO)NC(=O)[C@H](Cc1ccc(O)cc1)NC(=O)[C@H](CC(=O)O)NC(=O)[C@H](CO)NC(=O)[C@@H](NC(=O)C(C)(Cc1ccccc1)NC(=O)[C@@H](NC(=O)CNC(=O)[C@H](CCC(N)=O)NC(=O)C(C)(C)NC(=O)[C@@H](N)Cc1c[nH]cn1)[C@@H](C)O)[C@@H](C)O)C(C)C)C(=O)N[C@@H](CCC(=O)O)C(=O)NCCCCC(=O)N1CCC[C@H]1C(=O)N[C@@H](CO)C(=O)N[C@@H](CO)C(=O)NCC(=O)N[C@@H](C)C(=O)N1CCC[C@H]1C(=O)N1CCC[C@H]1C(=O)N1CCC[C@H]1C(=O)N[C@@H](CO)C(N)=O` (stereo partly drawn) [Compound 7], the EC50 at GLP-1R stood at 0.0914 nM; at GCG-R, 2.3 nM.

In the case of `CC(C)C[C@H](NC(=O)[C@H](CC(C)C)NC(=O)[C@H](Cc1c[nH]c2ccccc12)NC(=O)[C@H](CCC(=O)O)NC(=O)[C@@H](NC(=O)[C@H](Cc1ccccc1)NC(=O)[C@H](CCC(=O)O)NC(=O)[C@H](CCCCNC(=O)COCCOCCNC(=O)COCCOCCNC(=O)CC[C@H](NC(=O)CCCCCCCCCCCCCCCCCCC(=O)O)C(=O)O)NC(=O)[C@H](C)NC(=O)[C@H](CCCCN)NC(=O)[C@H](CCCCN)NC(=O)[C@H](CCC(=O)O)NC(=O)[C@H](CC(=O)O)NC(=O)[C@H](CC(C)C)NC(=O)[C@H](Cc1ccc(O)cc1)NC(=O)[C@H](CCCCN)NC(=O)[C@H](CO)NC(=O)[C@H](Cc1ccc(O)cc1)NC(=O)[C@H](CC(=O)O)NC(=O)[C@H](CO)NC(=O)[C@@H](NC(=O)C(C)(Cc1ccccc1F)NC(=O)[C@@H](NC(=O)CNC(=O)[C@H](CCC(N)=O)NC(=O)C(C)(C)NC(=O)[C@@H](N)Cc1c[nH]cn1)[C@@H](C)O)[C@@H](C)O)C(C)C)C(=O)N[C@@H](CCC(=O)O)C(=O)NCCCCC(=O)N1CCC[C@H]1C(=O)N[C@@H](CO)C(=O)N[C@@H](CO)C(=O)NCC(=O)N[C@@H](C)C(=O)N1CCC[C@H]1C(=O)N1CCC[C@H]1C(=O)N1CCC[C@H]1C(=O)N[C@@H](CO)C(N)=O` (stereo partly drawn) [Compound 15], the EC50 came to 0.0835 nM on GLP-1R and 1.8 nM on GCG-R.

Turning to `CC(C)C[C@H](NC(=O)[C@H](CC(C)C)NC(=O)[C@H](Cc1c[nH]c2ccccc12)NC(=O)[C@H](CCC(=O)O)NC(=O)[C@@H](NC(=O)[C@H](Cc1ccccc1)NC(=O)[C@H](CCC(=O)O)NC(=O)[C@H](CCCCNC(=O)COCCOCCOCCOCCOCCNC(=O)CCCC[C@H](NC(=O)CCCCCCCCCCCCCCCCCCC(=O)O)C(=O)O)NC(=O)[C@H](C)NC(=O)[C@H](CCCCN)NC(=O)[C@H](CCCCN)NC(=O)[C@H](CCC(=O)O)NC(=O)[C@H](CC(=O)O)NC(=O)[C@H](CC(C)C)NC(=O)[C@H](Cc1ccc(O)cc1)NC(=O)[C@H](CCCCN)NC(=O)[C@H](CO)NC(=O)[C@H](Cc1ccc(O)cc1)NC(=O)[C@H](CC(=O)O)NC(=O)[C@H](CO)NC(=O)[C@@H](NC(=O)C(C)(Cc1ccccc1F)NC(=O)[C@@H](NC(=O)CNC(=O)[C@H](CCC(N)=O)NC(=O)C(C)(C)NC(=O)[C@@H](N)Cc1c[nH]cn1)[C@@H](C)O)[C@@H](C)O)C(C)C)C(=O)N[C@@H](CCC(=O)O)C(=O)NCCCCC(=O)N1CCC[C@H]1C(=O)N[C@@H](CO)C(=O)N[C@@H](CO)C(=O)NCC(=O)N[C@@H](C)C(=O)N1CCC[C@H]1C(=O)N1CCC[C@H]1C(=O)N1CCC[C@H]1C(=O)N[C@@H](CO)C(N)=O` (stereo partly drawn) [Compound 11], the EC50 was 0.0872 nM at GLP-1R and 1.5 nM at GCG-R.

On to `CC(C)C[C@H](NC(=O)[C@H](CC(C)C)NC(=O)[C@H](Cc1c[nH]c2ccccc12)NC(=O)[C@H](CCC(=O)O)NC(=O)[C@@H](NC(=O)[C@H](Cc1ccccc1)NC(=O)[C@H](CCC(=O)O)NC(=O)[C@H](CCCCNC(=O)COCCOCCOCCOCCOCCNC(=O)CCCCC[C@H](NC(=O)CCCCCCCCCCCCCCCCCCC(=O)O)C(=O)O)NC(=O)[C@H](C)NC(=O)[C@H](CCCCN)NC(=O)[C@H](CCCCN)NC(=O)[C@H](CCC(=O)O)NC(=O)[C@H](CC(=O)O)NC(=O)[C@H](CC(C)C)NC(=O)[C@H](Cc1ccc(O)cc1)NC(=O)[C@H](CCCCN)NC(=O)[C@H](CO)NC(=O)[C@H](Cc1ccc(O)cc1)NC(=O)[C@H](CC(=O)O)NC(=O)[C@H](CO)NC(=O)[C@@H](NC(=O)C(C)(Cc1ccccc1F)NC(=O)[C@@H](NC(=O)CNC(=O)[C@H](CCC(N)=O)NC(=O)C(C)(C)NC(=O)[C@@H](N)Cc1c[nH]cn1)[C@@H](C)O)[C@@H](C)O)C(C)C)C(=O)N[C@@H](CCC(=O)O)C(=O)NCCCCC(=O)N1CCC[C@H]1C(=O)N[C@@H](CO)C(=O)N[C@@H](CO)C(=O)NCC(=O)N[C@@H](C)C(=O)N1CCC[C@H]1C(=O)N1CCC[C@H]1C(=O)N1CCC[C@H]1C(=O)N[C@@H](CO)C(N)=O` (stereo partly drawn) [Compound 12], for which the values for the EC50 on GLP-1R and at GCG-R were 0.0954 nM and 1.8 nM, respectively.
